Data reported in patent US20230373937A1, “INHIBITORS OF SPINSTER HOMOLOG 2 (SPNS2) FOR USE IN THERAPY” (University of Virginia Patent Foundation, priority 2020, published 2023).
Where a name gives a salt, the structure may show the parent alone.

Molecular target: T1, SPNS2 (Mus musculus, UniProt Q91VM4)
T1 construct: expressed in transfected cells; host or cells: HeLa or U937 cells
T1 sequence (Q91VM4 1-549): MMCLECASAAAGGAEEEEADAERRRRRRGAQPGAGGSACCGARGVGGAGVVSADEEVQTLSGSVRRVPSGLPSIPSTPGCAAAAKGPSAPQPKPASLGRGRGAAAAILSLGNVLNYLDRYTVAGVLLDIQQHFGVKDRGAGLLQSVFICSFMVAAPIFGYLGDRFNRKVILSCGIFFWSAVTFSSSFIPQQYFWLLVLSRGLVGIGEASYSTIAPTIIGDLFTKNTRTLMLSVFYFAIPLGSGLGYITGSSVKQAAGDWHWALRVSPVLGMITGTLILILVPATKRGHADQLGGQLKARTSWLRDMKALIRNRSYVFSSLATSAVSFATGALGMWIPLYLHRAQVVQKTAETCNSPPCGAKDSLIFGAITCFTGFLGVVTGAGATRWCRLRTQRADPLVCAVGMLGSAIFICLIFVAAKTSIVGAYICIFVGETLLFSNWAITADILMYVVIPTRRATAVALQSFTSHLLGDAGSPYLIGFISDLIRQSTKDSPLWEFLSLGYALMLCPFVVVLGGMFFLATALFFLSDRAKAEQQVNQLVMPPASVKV
Assay: S1P transporter assay: S1P release from whole cells expressing SPNS2
Type: cell-based
Conditions: HeLa or U937 cells expressing mouse SPNS2; 18 hours; S1P in media measured by LC-MS; read-out: IC50 (in vitro inhibition against SPNS2)
Method: Transporter assays are vectorial and therefore require measurement of the transported analyte in different compartments. The S1P transporter SPNS2 only exports S1P, which obviates measuring uptake of S1P into transporter-expressing cells. Thus, transporter activity was determined by quantifying S1P release from whole cells expressing SPNS2. SPNS2 inhibitor potency was assessed using whole cell assays. HeLa or U937 cells expressing mouse SPNS2 were used to determine inhibitor potency (IC50). Cells were plated onto 12 well plates and assayed when the cell monolayers became confluent. Cell growth media (RPMI-1640 containing 10% fetal bovine serum) was replaced with 2 mL of serum-free media (RPMI-1640) containing fatty acid free bovine serum albumin (BSA) (0.2% w/v) and supplemented with 4-deoxypyridoxine (DOP) (1 mM), NaF (2 mM), Na3VO4 (0.2 mM) to inhibit S1P degradation. Test articles (1×10-9-1×10^-4 M) were assayed in duplicate or triplicate. After 18 hours, media was collected, an internal recovery standard (0.005 mL of 5×10^-7 M deuterated (d7) S1P in methanol) was added, the BSA was precipitated with trichloroacetic acid and the bound S1P extracted with methanol. S1P and S1P-d7 were measured by liquid chromatography mass spectrometry. Inhibitor potency at the human SPNS2 ortholog was determined by an analogous assay using U-937 cells, which endogenously express human SPNS2.

SMILES: CCCCCCCCCCc1ccc(-c2noc(CC(O)CN3CCCC3)n2)cc1 (centres unmarked) [Compound 6b, 1-(3-(4-decylphenyl)-1,2,4-oxadiazol-5-yl)-3-(pyrrolidin-1-yl)propan-2-ol hydrochloride]
- IC50: > 2000 nM

SMILES: CCCCCCCCCCc1ccc(-c2noc(CNC(=O)C[C@@H]3CCNC3)n2)cc1 [Compound 9k, (S)—N-((3-(4-decylphenyl)-1,2,4-oxadiazol-5-yl)methyl)-2-(pyrrolidin-3-yl)acetamide hydrochloride]
- IC50: ≤ 2000 nM

SMILES: CCCCCCCCNC(=O)c1ccc(-c2noc([C@@H]3CCNC3)n2)cc1 [Compound 13c, (R)—N-octyl-4-(5-(pyrrolidin-3-yl)-1,2,4-oxadiazol-3-yl)benzamide hydrochloride]
- IC50: > 2000 nM

SMILES: CCCCCCCCCCc1ccc(-c2noc(C3CCNCC3)n2)cc1 [Compound 5a, 3-(4-decylphenyl)-5-(piperidin-4-yl)-1,2,4-oxadiazole 2,2,2-trifluoroacetate]
- IC50: > 2000 nM

SMILES: CCCCCCCCCCc1cccc(-c2noc(CCCN)n2)c1 [Compound 5j, 3-(3-(3-decylphenyl)-1,2,4-oxadiazol-5-yl)propan-1-amine hydrochloride]
- IC50: ≤ 2000 nM

SMILES: CCCCCCCCCCc1ccc(-c2noc(CNC(=O)C3(N)CC3)n2)cc1 [Compound 9af, 1-amino-N-((3-(4-decylphenyl)-1,2,4-oxadiazol-5-yl)methyl)cyclopropane-1-carboxamide hydrochloride]
- IC50: > 2000 nM

SMILES: CCCCCCCCCCc1ccc(-c2noc(CCN)n2)cc1 [Compound 5b, 2-(3-(4-decylphenyl)-1,2,4-oxadiazol-5-yl)ethan-1-amine 2,2,2-trifluoroacetate]
- IC50: ≤ 2000 nM

SMILES: CCCCCCCCCCc1ccc(-c2noc(CNC(=O)[C@@H](N)C(C)C)n2)cc1 [Compound 9f, (S)-2-amino-N-((3-(4-decylphenyl)-1,2,4-oxadiazol-5-yl)methyl)-3-methylbutanamide hydrochloride]
- IC50: > 2000 nM

SMILES: CCCCCCCCCCc1ccc(-c2noc([C@@H](N)CCN)n2)cc1 [Compound 19c, (S)-1-(3-(4-decylphenyl)-1,2,4-oxadiazol-5-yl)propane-1,3-diamine dihydrochloride]
- IC50: ≤ 2000 nM

SMILES: CCCCCCCCCCc1ccc(-c2noc(CCCNC)n2)cc1 [Compound 5m, 3-(3-(4-decylphenyl)-1,2,4-oxadiazol-5-yl)-N-methylpropan-1-amine hydrochloride]
- IC50: > 2000 nM

SMILES: CCCCCCCCCCc1ccc(-c2noc([C@@H]3CC[C@H](N)C3)n2)cc1 [Compound 5d, (1S,3R)-3-(3-(4-decylphenyl)-1,2,4-oxadiazol-5-yl)cyclopentan-1-amine hydrochloride]
- IC50: > 2000 nM

SMILES: CCCCNC(=O)c1ccc(-c2noc([C@@H]3CCNC3)n2)cc1 [Compound 13a, (R)—N-butyl-4-(5-(pyrrolidin-3-yl)-1,2,4-oxadiazol-3-yl)benzamide hydrochloride]
- IC50: > 2000 nM

SMILES: CCCCCCCCCCc1ccc(-c2noc(CNC(=O)[C@@H]3CCC[C@H](N)C3)n2)cc1 [Compound 9r, (1R,3S)-3-amino-N-((3-(4-decylphenyl)-1,2,4-oxadiazol-5-yl)methyl)cyclohexane-1-carboxamide hydrochloride]
- IC50: ≤ 2000 nM

SMILES: NCCCc1nc(-c2ccc(OCc3ccccc3)cc2)no1 [Compound 5i, 3-(3-(4-(benzyloxy)phenyl)-1,2,4-oxadiazol-5-yl)propan-1-amine hydrochloride]
- IC50: > 2000 nM

SMILES: CCCCCCCCCCc1ccc(-c2noc(CNC(=O)[C@H]3CNCCO3)n2)cc1 [Compound 9q, (R)—N-((3-(4-decylphenyl)-1,2,4-oxadiazol-5-yl)methyl)morpholine-2-carboxamide hydrochloride]
- IC50: > 2000 nM

SMILES: CCCCCCCOc1ccc2cc(-c3noc(CCCN)n3)ccc2c1 [Compound 5w, 3-(3-(6-(heptyloxy)naphthalen-2-yl)-1,2,4-oxadiazol-5-yl)propan-1-amine hydrochloride]
- IC50: ≤ 2000 nM

SMILES: CCCCCCCCCCc1ccc(-c2noc(CNC(=O)[C@@H]3CCCN3)n2)cc1 [Compound 9m, (S)—N-((3-(4-decylphenyl)-1,2,4-oxadiazol-5-yl)methyl)pyrrolidine-2-carboxamide hydrochloride]
- IC50: ≤ 2000 nM
